# According to patent US8207172B2 (Bayer Intellectual Property GmbH, priority 2004, dated 2012):
# Where a name gives a salt, the structure may show the parent alone.
# Assays:
# [1] = test system: BT474 (human breast carcinoma); experiment: In vitro tumor cell proliferation assay (Cell Titer-Glo luminescent cell viability), BT474; format: cell-based; conditions: BT-474, 72 h, BT474 cells, 72 hours of drug exposure, ATP luminescence readout, read-out: IC50, anti-proliferative activity (inhibition of cell proliferation)
# In short: (§1)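 Proliferation inhibition was measured as ATP-dependent luciferase signal after cells in RPMI with 10% FBS received test compound for 72 h at 37° C. Final concentrations spanned […] to 64 pM in 0.1% DMSO; IC50 values were derived.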
# [2] = test system: A431 cells (human epidermoid carcinoma); experiment: In vitro tumor cell proliferation assay (Cell Titer-Glo luminescent cell viability), A431; format: cell-based; conditions: A-431, 72 h, 72 hours of drug exposure, ATP luminescence readout, read-out: IC50, anti-proliferative activity (inhibition of cell proliferation)
# In short: as §1
SMILES,IC50 [1] [µM],IC50 [2] [µM]
"CN(C)[C@@H]1CCN(CC(=O)N2CCC(n3cc4c(n3)CCc3c-4sc4ncnc(Nc5ccc(OCc6cccc(F)c6)c(Cl)c5)c34)CC2)C1 [Example 219, N-{3-chloro-4-[(3-fluorobenzyl)oxy]phenyl}-2-(1-{[(3R)-3-(dimethylamino)pyrrolidin-1-yl]acetyl}piperidin-4-yl)-4,5-dihydro-2H-pyrimido[5′,4′:4,5]thieno[2,3-e]indazol-6-amine]",≤ 1,≤ 5
"O=C(Cn1ncc2c1CCc1c-2sc2ncnc(Nc3ccc(OCc4cccc(F)c4)c(Cl)c3)c12)Nc1cccnc1 [Example 210, 2-[6-({3-chloro-4-[(3-fluorobenzyl)oxy]phenyl}amino)-4,5-dihydro-3H-pyrimido[5′,4′:4,5]thieno[2,3-e]indazol-3-yl]-N-pyridin-3-ylacetamide]",≤ 1,≤ 5
"O=C(Cn1cc2c(n1)CCc1c-2sc2ncnc(Nc3ccc(OCc4cccc(F)c4)c(Cl)c3)c12)N1CCOCC1 [Example 179, N-{3-chloro-4-[(3-fluorobenzyl)oxy]phenyl}-2-(2-morpholin-4-yl-2-oxoethyl)-4,5-dihydro-2H-pyrimido[5′,4′:4,5]thieno[2,3-e]indazol-6-amine]",≤ 1,≤ 5
"O=C(O)Cn1cc2c(n1)CCc1c-2sc2ncnc(Nc3ccc(OCc4cccc(F)c4)c(Cl)c3)c12 [Example 175, [6-({3-chloro-4-[(3-fluorobenzyl)oxy]phenyl}amino)-4,5-dihydro-2H-pyrimido[5′,4′:4,5]thieno[2,3-e]indazol-2-yl]acetic acid]",≤ 5,≤ 50
"CC(C)(C)OC(=O)N1CCN(CCn2cc3c(n2)CCc2c-3sc3ncnc(Nc4ccc(OCc5cccc(F)c5)c(Cl)c4)c23)CC1 [Example 72, tert-butyl 4-{2-[6-({3-chloro-4-[(3-fluorobenzyl)oxy]phenyl}amino)-4,5-dihydro-2H-pyrimido[5′,4′:4,5]thieno[2,3-e]indazol-2-yl]ethyl}piperazine-1-carboxylate]",≤ 50,≤ 50

# Second part, the compound after the results:
IC50 [1] [µM],IC50 [2] [µM],SMILES
≤ 5,≤ 5,"CN1CCN(CCn2cc3c(n2)CCc2c-3sc3ncnc(Nc4ccc(OCc5cccc(C(F)(F)F)c5)c(Cl)c4)c23)CC1 [Example 328, N-(3-chloro-4-{[3-(trifluoromethyl)benzyl]oxy}phenyl)-2-[2-(4-methylpiperazin-1-yl)ethyl]-4,5-dihydro-2H-pyrimido[5′,4′:4,5]thieno[2,3-e]indazol-6-amine]"
≤ 5,≤ 50,"CN1CCN(CCn2cc3c(n2)CCc2c-3sc3ncnc(Nc4ccc(Oc5cccnc5)cc4)c23)CC1 [Example 340, 2-[2-(4-methylpiperazin-1-yl)ethyl]-N-[4-(pyridin-3-yloxy)phenyl]-4,5-dihydro-2H-pyrimido[5′,4′:4,5]thieno[2,3-e]indazol-6-amine]"
≤ 1,≤ 5,"CN(C)C1CCN(CCn2ncc3c2CCc2c-3sc3ncnc(Nc4ccc(OCc5cccc(F)c5)c(Cl)c4)c23)C1 (centres unmarked) [Example 267, N-{3-chloro-4-[(3-fluorobenzyl)oxy]phenyl}-3-{2-[3-(dimethylamino)pyrrolidin-1-yl]ethyl}-4,5-dihydro-3H-pyrimido[5′,4′:4,5]thieno[2,3-e]indazol-6-amine trifluoroacetate]"
≤ 5,≤ 50,"Fc1cccc(COc2ccc(Nc3ncnc4sc5c(c34)CCc3c-5cnn3CCNCCN3CCOCC3)cc2Cl)c1 [Example 259, N-{3-chloro-4-[(3-fluorobenzyl)oxy]phenyl}-3-{2-[(2-morpholin-4-ylethyl)amino]ethyl}-4,5-dihydro-3H-pyrimido[5′,4′:4,5]thieno[2,3-e]indazol-6-amine]"
≤ 1,≤ 5,"Fc1cccc(Cn2ncc3cc(Nc4ncnc5sc6c(c45)CCc4nn(CCN5CCOCC5)cc4-6)ccc32)c1 [Example 278, N-[1-(3-fluorobenzyl)-1H-indazol-5-yl]-2-(2-morpholin-4-ylethyl)-4,5-dihydro-2H-pyrimido[5′,4′:4,5]thieno[2,3-e]indazol-6-amine]"
